Measurements taken from patent US9975882B2, “Heteroaromatic compounds as BTK inhibitors” (Boehringer Ingelheim International GmbH, priority 2015, dated 2018).

Experiments:
[1] = biological target: human full length His-tagged BTK (Homo sapiens (Human), UniProt Q06187); experiment: BTK Lanthscreen Eu Kinase Binding assay; conditions: 2 nM BTK
Description: BTK Lanthscreen® Eu Kinase Binding Assay:
A Lanthscreen® Eu Kinase Binding assay (Life Technologies) is performed to quantitate the ability of test compounds to bind to BTK. The assay is based on the binding and displacement of Alexa Fluor647-labeled Kinase Tracer #236 to the ATP-binding site of human full length His-tagged BTK (Life Technologies cat #PV3587) with TR-FRET detection using a europium-labeled anti-His antibody. The assay is assembled in 384-well low volume NBS black plates (Corning) where 2 nM BTK and test compound in DMSO at varying concentrations are pre-incubated for 30 min at 28° C. in assay buffer consisting of 50 mM HEPES, pH 7.4, 10 mM MgCl2, 1 mM EGTA. 100 μM Na3VO4 and 0.01% Brij 35. Then, 2 nM of Eu-anti His antibody and 30 nM Kinase Tracer are added and incubated for 60 min at 28° C. Following incubation, TR-FRET signal is read on an Envision plate reader (Excitation: 340 nm; Emissions: 615 and 665 nm). The 665:615 nm emission ratio is calculated and converted to POC compared to control and blank wells.

[2] = biological target: EGFR (EGFR phosphorylation in A431 cells) (Homo sapiens (Human), UniProt P00533); experiment: Inhibition of EGFR autophosphorylation in A431 human epithelial cells stimulated with EGF; type: cell-based; conditions: EGF 60 ng/mL, read-out: A431 p-EGFR IC50
Description: Inhibition of EGFR Autophosphorylation in A431 Human Epithelial Cells Stimulated with Epithelial Growth Factor
A431 cells (ATCC #CRL-1555 FZ) are thawed and plated in DMEM containing 10% FBS in a 384-well tissue culture treated plate at 15,000 cells/well. After incubating for 24 hours at 37° C., 5% CO2, the cells are treated with test compound (1% DMSO final concentration) and incubated for 16 hours at 37° C., 5% CO2. EGF (Millipore, 01-107) is added at a final concentration of 60 ng/mL and incubated for 10 minutes. The medium is removed, the cells are lysed, and phospho EGFR is measured (Meso Scale Diagnostics, N31CB-1).
(§1) Representative compounds of the present invention are tested and show BTK inhibition (Table I). […] Additionally, compounds of the present invention, as represented by examples in Table II, are selective for BTK inhibition over other related kinases. […] In this table the BTK activity is measured by IL-6 production in primary CD19^+ B cells, and the EGFR activity is measured by EGFR phosphorylation in A431 cells.

[3] = test system: BTK (IL-6 production in primary CD19+ B cells); experiment: Inhibition of IL-6 production in B cells co-stimulated with ODN 2006 and anti-hIgD; type: cell-based; conditions: B-cell, anti-human IgD + ODN 2006
Description: Inhibition of IL-6 Production in B Cells Co-Stimulated with ODN 2006 and anti-hIgD
Primary CD19+ B cells (AllCells #PB010F) are thawed and plated in RPMI containing 10% HI FBS in a 384-well tissue cultured plate at 20,000 cells/well. The cells are treated with test compound (0.5% DMSO final concentration) and incubated for 1 hour at 37° C., 5% CO2. Cells are then stimulated with 5 ug/mL Goat F(ab′)2 anti-human IgD (SouthernBiotech #2032) and 2 uM ODN 2006 (InvivoGen #tlrl-2006) and incubated for 18-24 hours at 37° C., 5% CO2. IL-6 in the supernatant is measured using Meso Scale Discovery kit #K211AKB-6.
as §1

[4] = biological target: human recombinant BTK (full length, His-tagged) (Homo sapiens (Human), UniProt Q06187); experiment: BTK Z'-LYTE assay; type: biochemical; conditions: 25 μM ATP;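 note: FRET readout of kinase phosphorylating a coumarin and fluorescein labelled synthetic peptide, detected via protease sensitivity of unphosphorylated versus phosphorylated substrate, incubated at 22 °C in 384-well plates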
Description: Z′-LYTE™ Assay (Life Technologies):
(§2) The Z′-Lyte assay employs a FRET-based, coupled-enzyme format and is based on the differential sensitivity of phosphorylated and non-phosphorylated peptides to proteolytic Cleavage. The activity of human recombinant BTK (full length, His-tagged), BMX (full length, His-tagged) or Txk (full length, GST-tagged) is estimated by measuring the phosphorylation of a synthetic FRET peptide substrate labeled with Coumarin and Fluorescein. […] Incubations are carried out at 22° C. in black polypropylene 384-well plates (Corning).
(§3) Representative compounds of the present invention are assessed for inhibition of BTK, BMX, and TXK measuring phosphorylation of a substrate (Z′-LYTE™ assay, Life Technologies) and TEC measuring displacement of a “tracer” (Lanthscreen® Eu Kinase Binding assay, Life Technologies).

[5] = biological target: human recombinant full length TEC (His-tagged) (Homo sapiens (Human), UniProt P42680); experiment: TEC Lanthscreen Eu Kinase Binding assay; conditions: 1 nM TEC
[6] = biological target: human recombinant Txk (full length, GST-tagged) (Homo sapiens (Human), UniProt P42681); experiment: TXK Z'-LYTE assay; conditions: read-out: TXK IC50, 100 μM ATP;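 note: FRET read-out of kinase phosphorylation of a synthetic peptide labelled with Coumarin and Fluorescein, scored by protease sensitivity of unphosphorylated peptide, incubated at 22 °C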
human recombinant Txk (full length, GST-tagged), sequence (P42681 whole entry): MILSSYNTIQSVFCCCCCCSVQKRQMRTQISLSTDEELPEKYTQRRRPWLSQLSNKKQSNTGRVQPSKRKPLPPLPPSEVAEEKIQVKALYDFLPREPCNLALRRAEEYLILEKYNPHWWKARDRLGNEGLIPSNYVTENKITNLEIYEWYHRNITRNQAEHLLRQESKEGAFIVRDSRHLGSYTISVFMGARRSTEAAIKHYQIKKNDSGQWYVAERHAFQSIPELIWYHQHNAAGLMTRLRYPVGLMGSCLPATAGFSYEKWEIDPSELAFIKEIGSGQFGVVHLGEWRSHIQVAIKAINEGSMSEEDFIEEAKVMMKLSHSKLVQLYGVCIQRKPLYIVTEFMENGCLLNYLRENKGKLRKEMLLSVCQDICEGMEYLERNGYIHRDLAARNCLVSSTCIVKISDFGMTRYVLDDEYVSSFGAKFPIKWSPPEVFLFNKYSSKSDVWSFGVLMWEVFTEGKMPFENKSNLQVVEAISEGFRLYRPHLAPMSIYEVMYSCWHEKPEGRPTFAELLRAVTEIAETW
Description: Z′-LYTE™ Assay (Life Technologies):
as §2, §3

EGFR (EGFR phosphorylation in A431 cells), sequence (P00533 25-1210): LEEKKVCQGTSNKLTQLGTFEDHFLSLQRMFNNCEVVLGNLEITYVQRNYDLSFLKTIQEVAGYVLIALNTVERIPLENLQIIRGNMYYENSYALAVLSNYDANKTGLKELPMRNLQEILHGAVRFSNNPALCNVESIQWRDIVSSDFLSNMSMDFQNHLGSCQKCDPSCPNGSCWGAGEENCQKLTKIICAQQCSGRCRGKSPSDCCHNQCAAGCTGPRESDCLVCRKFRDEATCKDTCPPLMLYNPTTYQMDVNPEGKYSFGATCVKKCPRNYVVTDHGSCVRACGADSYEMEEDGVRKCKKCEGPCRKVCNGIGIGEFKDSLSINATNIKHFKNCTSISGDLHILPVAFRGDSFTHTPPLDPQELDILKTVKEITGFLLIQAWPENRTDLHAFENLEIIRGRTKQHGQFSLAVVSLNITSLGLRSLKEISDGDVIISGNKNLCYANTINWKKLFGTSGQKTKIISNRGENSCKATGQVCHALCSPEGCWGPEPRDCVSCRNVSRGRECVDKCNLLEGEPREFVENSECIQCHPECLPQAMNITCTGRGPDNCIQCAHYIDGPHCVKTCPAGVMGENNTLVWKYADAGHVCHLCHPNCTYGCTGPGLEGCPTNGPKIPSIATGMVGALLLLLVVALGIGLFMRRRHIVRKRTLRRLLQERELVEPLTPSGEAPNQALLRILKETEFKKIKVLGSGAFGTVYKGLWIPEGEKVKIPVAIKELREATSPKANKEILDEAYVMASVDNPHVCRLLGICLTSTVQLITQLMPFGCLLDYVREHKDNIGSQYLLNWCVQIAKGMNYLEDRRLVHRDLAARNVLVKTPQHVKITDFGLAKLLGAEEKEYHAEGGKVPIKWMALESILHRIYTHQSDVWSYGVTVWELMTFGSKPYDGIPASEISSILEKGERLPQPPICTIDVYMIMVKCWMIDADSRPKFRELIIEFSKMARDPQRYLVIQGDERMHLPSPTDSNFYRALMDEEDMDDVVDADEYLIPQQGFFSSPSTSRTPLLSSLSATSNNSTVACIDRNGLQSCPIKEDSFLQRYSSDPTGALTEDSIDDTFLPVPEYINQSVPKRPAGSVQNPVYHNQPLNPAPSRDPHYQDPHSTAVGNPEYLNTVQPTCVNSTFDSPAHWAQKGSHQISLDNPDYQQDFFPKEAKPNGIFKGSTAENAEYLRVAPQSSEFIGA
human recombinant BTK (full length, His-tagged), sequence (Q06187 whole entry): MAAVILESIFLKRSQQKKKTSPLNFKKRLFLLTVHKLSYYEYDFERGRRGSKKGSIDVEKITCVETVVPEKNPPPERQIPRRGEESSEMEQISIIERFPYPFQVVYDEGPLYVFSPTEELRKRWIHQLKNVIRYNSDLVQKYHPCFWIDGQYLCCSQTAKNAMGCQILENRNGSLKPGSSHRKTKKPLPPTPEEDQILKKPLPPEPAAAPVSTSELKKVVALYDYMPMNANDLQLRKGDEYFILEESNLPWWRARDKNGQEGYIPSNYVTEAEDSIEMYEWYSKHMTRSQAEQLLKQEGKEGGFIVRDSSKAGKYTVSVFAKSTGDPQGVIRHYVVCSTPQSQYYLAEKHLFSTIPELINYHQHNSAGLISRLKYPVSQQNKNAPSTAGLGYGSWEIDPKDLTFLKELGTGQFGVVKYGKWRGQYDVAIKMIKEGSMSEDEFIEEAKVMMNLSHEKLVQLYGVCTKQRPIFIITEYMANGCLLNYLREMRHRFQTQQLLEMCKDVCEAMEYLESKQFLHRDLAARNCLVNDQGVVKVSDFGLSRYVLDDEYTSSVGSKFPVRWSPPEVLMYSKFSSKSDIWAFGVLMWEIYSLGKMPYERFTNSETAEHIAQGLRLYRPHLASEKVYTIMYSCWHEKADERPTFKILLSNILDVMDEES
human full length His-tagged BTK, sequence (Q06187 whole entry): as above
human recombinant full length TEC (His-tagged), sequence (P42680 whole entry): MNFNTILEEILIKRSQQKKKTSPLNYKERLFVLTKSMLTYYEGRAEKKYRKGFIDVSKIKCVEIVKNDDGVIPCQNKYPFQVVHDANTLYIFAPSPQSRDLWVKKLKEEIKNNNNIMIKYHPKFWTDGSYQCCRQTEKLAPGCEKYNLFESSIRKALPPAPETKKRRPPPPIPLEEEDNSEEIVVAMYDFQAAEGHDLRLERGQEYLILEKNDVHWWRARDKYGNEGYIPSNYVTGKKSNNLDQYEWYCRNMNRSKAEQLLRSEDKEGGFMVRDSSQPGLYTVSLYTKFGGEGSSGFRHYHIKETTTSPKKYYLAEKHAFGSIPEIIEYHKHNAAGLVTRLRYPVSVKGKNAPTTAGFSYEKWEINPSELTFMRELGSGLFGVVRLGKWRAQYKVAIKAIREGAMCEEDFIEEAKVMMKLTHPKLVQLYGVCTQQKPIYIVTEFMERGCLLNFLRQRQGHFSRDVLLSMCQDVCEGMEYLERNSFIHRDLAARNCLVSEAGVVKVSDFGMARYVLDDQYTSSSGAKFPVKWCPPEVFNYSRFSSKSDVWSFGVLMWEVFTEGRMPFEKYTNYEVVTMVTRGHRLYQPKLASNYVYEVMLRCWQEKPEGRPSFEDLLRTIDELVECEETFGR

| Structure (SMILES) | IC50 [1] [nM] | IC50 [2] [µM] | IC50 [3] [nM] | IC50 [4] [nM] | IC50 [5] [nM] | IC50 [6] [nM] |
| --- | --- | --- | --- | --- | --- | --- |
| C=CC(=O)N1CC[C@]2(C1)C[C@H](n1nc(-c3cnn(Cc4ccccc4)c3)c(C(N)=O)c1N)C2 [Example 1] | 36 |  |  |  |  |  |
| CC#CC(=O)N1CC[C@]2(C1)C[C@H](n1nc(-c3cnn(Cc4cccc(Cl)c4)c3)c(C(N)=O)c1N)C2 [Example 2] |  | > 10 | 0.3 |  |  |  |
| CC#CC(=O)N1CC[C@]2(C1)C[C@H](n1nc(-c3cnn(Cc4cccc(C(F)(F)F)c4Cl)c3)c(C(N)=O)c1N)C2 [Example 3] |  | > 10 | 1.2 |  |  |  |
| CC#CC(=O)N1CC[C@]2(C1)C[C@H](n1nc(-c3cnn(Cc4cc(C(F)(F)F)ccc4C)c3)c(C(N)=O)c1N)C2 [Example 4] | 1.8 |  |  |  |  |  |
| CC#CC(=O)N1CC[C@]2(C1)C[C@H](n1nc(-c3cnn(Cc4cc(C(F)(F)F)ccc4OC)c3)c(C(N)=O)c1N)C2 [Example 7] |  | > 10 | 72 |  |  |  |
| CC#CC(=O)N1CC[C@]2(C1)C[C@H](n1nc(-c3cnn(Cc4cc(C(F)(F)F)ccc4Cl)c3)c(C(N)=O)c1N)C2 [Example 8] |  | > 10 | 2.5 |  |  |  |
| CC#CC(=O)N1CC[C@]2(C1)C[C@H](n1nc(-c3cnn(Cc4ccnc(C(F)(F)F)c4)c3)c(C(N)=O)c1N)C2 [Example 13] | 9.1 |  |  |  |  |  |
| CC#CC(=O)N1CC[C@]2(C1)C[C@H](n1nc(-c3cnn(C(C)c4cccc(C(F)(F)F)c4)c3)c(C(N)=O)c1N)C2 (some centres unmarked) [Example 15] | 1.1 |  |  |  |  |  |
| CC#CC(=O)N1CC[C@]2(C1)C[C@H](n1nc(-c3cnn(Cc4ccccc4C)c3)c(C(N)=O)c1N)C2 [Example 16] | 1.5 | > 10 | 2 | 13 | 220 | 430 |
| CC#CC(=O)N1CC[C@]2(C1)C[C@H](n1nc(-c3cnn([C@H](C)c4cccc(C(F)(F)F)c4)c3)c(C(N)=O)c1N)C2 [Example 18] |  | > 10 | 8 |  |  |  |
| C=CC(=O)N1CC[C@]2(C1)C[C@H](n1nc(-c3cnn(Cc4cccc(C(F)(F)F)c4)c3)c(C(N)=O)c1NC)C2 [Example 20] | 22 |  |  |  |  |  |
| CC#CC(=O)N1CC[C@]2(C1)C[C@H](n1nc(-c3cnn(Cc4cccc(Cl)c4)c3)c(C(N)=O)c1NC)C2 [Example 27] | 1.7 | > 10 | 3.4 | 6.6 | 66 |  |
| CC#CC(=O)N1CC[C@]2(C1)C[C@H](n1nc(-c3cnn(Cc4cc(C)cc(C(F)(F)F)c4)c3)c(C(N)=O)c1N)C2 [Example 38] | 3 |  |  |  |  |  |
| CC#CC(=O)N1CC[C@]2(C1)C[C@H](n1nc(-c3cnn(Cc4cc(Cl)cc(C(F)(F)F)c4)c3)c(C(N)=O)c1N)C2 [Example 39] | 0.9 |  |  |  |  |  |
| CC#CC(=O)N1CC2(CC(n3nc(-c4cnn(Cc5cc(C)cc(C)c5)c4)c(C(N)=O)c3N)C2)C1 [Example 40] | 4.2 |  |  |  |  |  |
| C=CC(=O)N1CC[C@]2(C1)C[C@H](n1nc(-c3cnn(Cc4cccc(C(F)(F)F)c4)c3)c(C(N)=O)c1N)C2 [Example 42] | 78 |  |  |  |  |  |
| C=CC(=O)N1CC[C@]2(C1)C[C@H](n1nc(-c3cnn(Cc4cccc(C5CC5)c4)c3)c(C(N)=O)c1N)C2 [Example 43] | 3 |  |  |  |  |  |
| CC#CC(=O)N1CC2(CC(n3nc(-c4cnn(Cc5ccccc5)c4)c(C(N)=O)c3N)C2)C1 [Example 45] | 6 |  |  |  |  |  |
| CC#CC(=O)N1CC2(CC(n3nc(-c4cnn(Cc5cc(C)cc(C(F)(F)F)c5)c4)c(C(N)=O)c3N)C2)C1 [Example 46] | 7.9 |  |  |  |  |  |
| C=CC(=O)N1CC2(CC(n3nc(-c4cnn(Cc5ccccc5)c4)c(C(N)=O)c3N)C2)C1 [Example 48] | 16 |  |  |  |  |  |
| CC#CC(=O)N1CC2(CC(n3nc(-c4cnn(Cc5cc(C(F)(F)F)cc(C(F)(F)F)c5)c4)c(C(N)=O)c3N)C2)C1 [Example 49] | 45 |  |  |  |  |  |
| CC#CC(=O)N1CC[C@]2(C1)C[C@H](n1nc(-c3cnn(Cc4cc(F)ccc4C(F)(F)F)c3)c(C(N)=O)c1N)C2 [Example 57] | 0.9 |  |  |  |  |  |
| CC#CC(=O)N1CC[C@]2(C1)C[C@H](n1nc(-c3cnn(Cc4ccc(Cl)c(C(F)(F)F)c4)c3)c(C(N)=O)c1N)C2 [Example 58] |  | > 10 | 3.4 |  |  |  |

Further molecules by falling IC50 [1], results first:

| IC50 [1] [nM] | IC50 [2] [µM] | IC50 [3] [nM] | IC50 [4] [nM] | IC50 [5] [nM] | IC50 [6] [nM] | Structure (SMILES) |
| --- | --- | --- | --- | --- | --- | --- |
| 0.9 |  |  |  |  |  | CC#CC(=O)N1CC[C@]2(C1)C[C@H](n1nc(-c3cn(Cc4cccc(C(F)F)c4)nc3C)c(C(N)=O)c1N)C2 [Example 35] |
| 0.8 |  |  |  |  |  | CC#CC(=O)N1CC[C@]2(C1)C[C@H](n1nc(-c3cnn(Cc4cccc(C5CC5)c4)c3)c(C(N)=O)c1NC)C2 [Example 24] |
| 0.8 |  |  | 3.6 |  | 92 | CC#CC(=O)N1CC[C@]2(C1)C[C@H](n1nc(-c3cnn(Cc4ccc(F)cc4)c3)c(C(N)=O)c1N)C2 [Example 29] |
| 0.8 |  |  |  |  |  | CC#CC(=O)N1CC[C@]2(C1)C[C@H](n1nc(-c3cnn(Cc4cc(F)cc(C(F)(F)F)c4)c3)c(C(N)=O)c1N)C2 [Example 31] |
| 0.8 |  |  |  |  |  | CC#CC(=O)N1CC[C@]2(C1)C[C@H](n1nc(-c3cn(Cc4cccc(C5CC5)c4)nc3C)c(C(N)=O)c1N)C2 [Example 37] |
| 0.7 |  |  | 1.8 | 73 | 150 | CC#CC(=O)N1CC[C@]2(C1)C[C@H](n1nc(-c3cnn(Cc4ccccc4C#N)c3)c(C(N)=O)c1N)C2 [Example 11] |
| 0.7 |  |  |  |  |  | CC#CC(=O)N1CC[C@]2(C1)C[C@H](n1nc(-c3cn(Cc4cccc(Cl)c4)nc3C)c(C(N)=O)c1N)C2 [Example 34] |
| 0.6 |  |  |  |  |  | CC#CC(=O)N1CC[C@]2(C1)C[C@H](n1nc(-c3cnn(Cc4ccccc4OC(F)(F)F)c3)c(C(N)=O)c1N)C2 [Example 9] |
| 0.5 | > 10 | 1.1 | 1.4 | 120 | 100 | CC#CC(=O)N1CC[C@]2(C1)C[C@H](n1nc(-c3cnn(Cc4cccc(C(F)(F)F)c4C#N)c3)c(C(N)=O)c1N)C2 [Example 10] |
| 0.5 | > 10 | 1.1 | 1.7 | 92 |  | CC#CC(=O)N1CC[C@]2(C1)C[C@H](n1nc(-c3cnn(Cc4cccc(C(F)(F)F)n4)c3)c(C(N)=O)c1N)C2 [Example 14] |
| 0.5 | > 10 | 1.3 | 1.9 |  |  | CC#CC(=O)N1CC[C@]2(C1)C[C@H](n1nc(-c3cnn(Cc4cc(C(F)(F)F)ccc4F)c3)c(C(N)=O)c1N)C2 [Example 32] |
| 0.4 |  |  |  |  |  | CC#CC(=O)N1CC[C@]2(C1)C[C@H](n1nc(-c3cnn(Cc4ccc(C)c(C(F)(F)F)c4)c3)c(C(N)=O)c1N)C2 [Example 5] |
| 0.4 | > 10 | 1 | 1.5 | 65 | 43 | CC#CC(=O)N1CC[C@]2(C1)C[C@H](n1nc(-c3cnn(Cc4cccc(C(F)(F)F)c4C)c3)c(C(N)=O)c1N)C2 [Example 6] |
| 0.3 |  |  | 1.2 | 39 | 95 | CC#CC(=O)N1CC[C@]2(C1)C[C@H](n1nc(-c3cnn(Cc4cccc(F)c4)c3)c(C(N)=O)c1N)C2 [Example 28] |
| 0.3 |  |  |  |  |  | NC(=O)c1c(-c2cnn(Cc3ccccc3)c2)nn([C@H]2C[C@@]3(CCN(C(=O)C#CC4CC4)C3)C2)c1N [Example 41] |
| 0.3 | > 10 | 0.4 | 0.8 |  | 68 | CC#CC(=O)N1CC[C@]2(C1)C[C@H](n1nc(-c3cnn(Cc4cccc(F)c4F)c3)c(C(N)=O)c1N)C2 [Example 59] |
